Experimental findings from patent US8604217B2, “Compound, a process for its preparation, a pharmaceutical composition, use of a compound, a method for modulating or regulating serine/threonine kinases and a serine/threonine kinases modulating agent” (Selvita S.A., priority 2009, dated 2013) are described below.

The structures appear in SMILES notation.

Experiment [1] has as its system human hepatoma HepG2 cells. The experiment in a line: Growth inhibition test (MTS) on HepG2 cells. In kind it is cell-based. As to conditions: 72 hours, read-out: HepG2 ED50. The method in brief: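 HepG2 cells in DMEM with 10% FCS were exposed for 72 h at 37 °C, 5% CO2, to 0.1, 0.5, 1, 2.5, 5 and 10 micromol/L compound. MTS was then added for 2 h and absorbance read at 490 nm. % viability was calculated relative to untreated cells set at 100%.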

Experiment [2] relates to human erytroblast leukemia HEL-92.1.7 cells. Put plainly: Growth inhibition test (MTS) on HEL-92.1.7 cells. It is filed as cell-based. As to conditions: 72 hours, read-out: HEL92 ED50. As for the experimental part: (§1) Ten thousand cells of human erytroblast leukemia HEL-92.1.7 were inoculated into each well of a 96-well microplate (manufactured by Corning Corp.) using RPMI 1640 medium (culture medium) containing 10% fetal calf serum (FCS). Next day, a dimethyl sulfoxide (DMSO) solution of each test compound prepared in a concentration of 10 mmol/L was further diluted with culture medium to the desired concentrations (0.1, 0.5, 1, 2.5, 5 and 10 micromol/L), and the diluted solution was added to each well. The individual wells were further cultured in 5% carbon dioxide at 37° C. for 72 hours. After completion of the culture, 10 μl MTS (3-(4,5-Dimethyl-2-thiazolyl)-5-(carboxymethoxyphenyl)-2-(4-sulfophenyl)-2H-tetrazolium, inner salt assay (CellTiter96® AQueous One Solution Cell Proliferation Assay, Promega) was added to each well, and culturing was performed in 5% carbon dioxide at 37° C. for 2 hours. Using a microplate spectrophotometer (Synergy 2 multi-mode microplate reader (BioTek)), the absorbance of each well was measured at 490 nm. The value for cells not incorporated with a test compound was designated as 100%. By comparing these values with the absorbance difference obtained at the well in which each test compound was added, the cell viability (% viability) after treatment with the test compound was calculated.

Experiment [3] has as its system human breast adenocarcinoma MCF7 cells. Put plainly: Growth inhibition test (MTS) on MCF7 cells. As to conditions: Homo sapiens, MCF7, 72 hours, read-out: MCF-7 ED50. It is filed as cell-based. As for the experimental part:
as §1, with “Two” for “Ten”, “breast adenocarcinoma MCF7” for “erytroblast leukemia HEL-92.1.7”, “Corp.), and” for “Corp.)”, “DMEM” for “RPMI 1640”

The test system of experiment [4] is human prostate adenocarcinoma PC3 cells. The experiment in a line: Growth inhibition test (MTS) on PC3 cells. In kind it is cell-based. The note with it: Homo sapiens, PC-3, 72 hours, read-out: PC-3 ED50.
For the next experiment, the target named is PIM-1 (Homo sapiens (Human), UniProt P11309). The experiment in a line: Luminometric kinase assay for PIM1 kinase (Kinase-Glo). It is filed as biochemical. The note with it: 1 μM ATP, 25 min at RT. In short, it runs like this: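 Kinase and substrate reacted in 8 mM MOPS/NaOH pH7.0, 0.2 mM EDTA, 2 mM MgCl2 with 1 μM ATP for 25 min at RT, compounds serially diluted from 1 μM. Remaining ATP read by Kinase-Glo luminescence; IC50 from variable-slope sigmoidal fit.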

The subject of experiment [5] is human myelomonocytic, biphenotypic leukemia MV4-11 cells. Put plainly: Growth inhibition test (MTS) on MV4-11 cells. It is filed as cell-based. As to conditions: Homo sapiens, MV4-11, 72 hours, read-out: MV-4-11 ED50. In short, it runs like this:
MV4-

Experiment [6] relates to human acute lymphocytic leukemia E6.1 Jurkat cells. The experiment in a line: Growth inhibition test (MTS) on E6.1 Jurkat cells. It is filed as cell-based. As to conditions: 72 hours, read-out: Jurkat ED50. On the procedure:
as §1, with “Twenty” for “Ten”, “acute lumphocytic” for “erytroblast”, “E6.1 Jurkat” for “HEL-92.1.7”, “[…]” for “1640”

PIM-1, sequence (P11309 whole entry): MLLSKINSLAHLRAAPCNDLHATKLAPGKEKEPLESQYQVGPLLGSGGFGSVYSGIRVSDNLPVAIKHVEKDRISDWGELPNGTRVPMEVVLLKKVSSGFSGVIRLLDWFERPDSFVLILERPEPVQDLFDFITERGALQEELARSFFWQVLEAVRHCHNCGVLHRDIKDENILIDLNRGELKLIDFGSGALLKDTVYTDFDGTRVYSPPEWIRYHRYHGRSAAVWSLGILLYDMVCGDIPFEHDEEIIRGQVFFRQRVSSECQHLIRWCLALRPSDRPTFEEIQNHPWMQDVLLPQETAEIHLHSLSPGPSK

Regarding `N[C@H]1CCCC[C@H]1Nc1nc2c(Br)c(Br)c(Br)c(Br)c2[nH]1` (relative stereo) [Compound 304cis, cis N1-(4,5,6,7-tetrabromo-1H-benzo[d]imidazol-2-yl)cyclohexane-1,2-diamine], the IC50 in experiment [1] is 1.34 µM; in experiment [2], 1.82 µM; in experiment [3], 0.7 µM; in experiment [4], 1.47 µM; on PIM-1 it was 0.0069 µM; in experiment [5] it was 0.33 µM.

`Brc1c(Br)c(Br)c2[nH]c(N3CCCNCC3)nc2c1Br` [Compound 260, 4,5,6,7-tetrabromo-2-(1,4-diazepan-1-yl)-1H-benzo[d]imidazole]: the IC50 in experiment [6] came out at 5.35 µM; in experiment [1] it was 7.04 µM; in experiment [3], 5.65 µM; in experiment [4], 5.59 µM; on PIM-1, 0.0299 µM; in experiment [5], 1.45 µM.

In the case of `Brc1c(Br)c(Br)c2[nH]c(NC3CCCCCCC3)nc2c1Br` [Compound 261, 4,5,6,7-tetrabromo-N-cyclooctyl-1H-benzo[d]imidazol-2-amine], the IC50 is 4.52 µM in experiment [6]; 4.29 µM in experiment [1]; 4.94 µM in experiment [3]; 3.2 µM in experiment [4]; 0.138 µM at PIM-1; 3.41 µM in experiment [5].

With `CN1CCC(N(C)CC(Nc2nc3c(Br)c(Br)c(Br)c(Br)c3[nH]2)c2ccccc2)CC1` (stereo not shown) [Compound 263, N-(4,5,6,7-tetrabromo-1H-benzo[d]imidazol-2-yl)-N′-methyl-N′-(1-methylpiperidin-4-yl)-1-phenylethane-1,2-diamine], the IC50 in experiment [6] is 2.56 µM; in experiment [1], 2.66 µM; in experiment [3] it was 2.76 µM; in experiment [4], 2.64 µM; at PIM-1 it was 0.0475 µM; in experiment [5], 2.39 µM.

Take `CCN1CCCC1CNc1nc2c(Br)c(Br)c(Br)c(Br)c2[nH]1` (stereo not shown) [Compound 265a, 4,5,6,7-tetrabromo-N-((1-ethylpyrrolidin-2-yl)methyl)-1H-benzo[d]imidazol-2-amine]: the IC50 in experiment [6] stood at 3.62 µM; in experiment [1], 1.8 µM; in experiment [3] it was 3.09 µM; in experiment [4], 4.57 µM; on PIM-1 it was 0.0674 µM; in experiment [5], 2.22 µM.

As to `CN(C)CC(CNc1nc2c(Br)c(Br)c(Br)c(Br)c2[nH]1)C(O)c1ccccc1` (stereo not shown) [Compound 272, 2-((4,5,6,7-tetrabromo-1H-benzo[d]imidazol-2-ylamino)methyl)-3-(dimethylamino)-1-phenylpropan-1-ol], the IC50 amounted to 2.76 µM in experiment [6]; 2.26 µM in experiment [1]; 4.51 µM in experiment [3]; 4.87 µM in experiment [4]; 0.0433 µM on PIM-1; 2.42 µM in experiment [5].

As for `N[C@@H]1CCCC[C@H]1Nc1nc2c(Br)c(Br)c(Br)c(Br)c2[nH]1` [Compound 304RR, (1R,2R)-N1-(4,5,6,7-tetrabromo-1H-benzo[d]imidazol-2-yl)cyclohexane-1,2-diamine], the IC50 was determined as 3.15 µM in experiment [6]; 2.64 µM in experiment [1]; 2.36 µM in experiment [3]; 3.16 µM in experiment [4]; 0.00526 µM at PIM-1; 0.25 µM in experiment [5].

In the case of `N[C@H]1CCCC[C@@H]1Nc1nc2c(Br)c(Br)c(Br)c(Br)c2[nH]1` [Compound 304SS, (1S,2S)-N1-(4,5,6,7-tetrabromo-1H-benzo[d]imidazol-2-yl)cyclohexane-1,2-diamine], the IC50 in experiment [6] was 5.07 µM; in experiment [1], 3.21 µM; in experiment [3], 5.03 µM; in experiment [4] it was 5.17 µM; on PIM-1, 0.0116 µM; in experiment [5], 0.98 µM.

With `COc1ccc(Nc2nc3c(Br)c(Br)c(Br)c(Br)c3[nH]2)cc1OC` [Compound 307, 4,5,6,7-tetrabromo-N-(3,4-dimethoxyphenyl)-1H-benzo[d]imidazol-2-amine], the IC50 was 8.97 µM in experiment [6]; 1.23 µM in experiment [1]; 9.43 µM in experiment [3]; 8.31 µM in experiment [4]; 0.287 µM on PIM-1; 6.03 µM in experiment [5].

In the case of `Nc1ccccc1Nc1nc2c(Br)c(Br)c(Br)c(Br)c2[nH]1` [Compound 332, N1-(4,5,6,7-tetrabromo-1H-benzo[d]imidazol-2-yl)benzene-1,2-diamine], the IC50 in experiment [1] was 6.59 µM; in experiment [2] it was 3.15 µM; in experiment [4], 7.51 µM; at PIM-1, 0.0162 µM; in experiment [5], 3.27 µM.

In the case of `Nc1cc(F)c(F)cc1Nc1nc2c(Br)c(Br)c(Br)c(Br)c2[nH]1` [Compound 333, N1-(4,5,6,7-tetrabromo-1H-benzo[d]imidazol-2-yl)-4,5-difluorobenzene-1,2-diamine], the IC50 in experiment [1] is 4.52 µM; in experiment [2] it was 3.25 µM; in experiment [3], 4.76 µM; in experiment [4] it was 2.49 µM; at PIM-1 it was 0.0485 µM; in experiment [5], 3.86 µM.

Consider `NCc1cccc(CNc2nc3c(Br)c(Br)c(Br)c(Br)c3[nH]2)c1` [Compound 354, N-(3-(aminomethyl)benzyl)-4,5,6,7-tetrabromo-1H-benzo[d]imidazol-2-amine], for which the IC50 in experiment [1] was found to be 2.61 µM; in experiment [2], 6.93 µM; in experiment [3], 3.09 µM; in experiment [4], 8.59 µM; at PIM-1, 0.108 µM; in experiment [5], 4.47 µM.

With `CNCCCN(Cc1ccccc1)c1nc2c(Br)c(Br)c(Br)c(Br)c2[nH]1` [Compound 372, N-benzyl-4,5,6,7-tetrabromo-N-(3-(methylamino)propyl)-1H-benzo[d]imidazol-2-amine], the IC50 stood at 1.32 µM in experiment [1]; 3.98 µM in experiment [2]; 2.54 µM in experiment [3]; 2.4 µM in experiment [4]; 0.0452 µM on PIM-1; 1.65 µM in experiment [5].

As for `CCOC(=O)N1CCN(c2nc3c(Br)c(Br)c(Br)c(Br)c3[nH]2)CC1` [Compound 376, ethyl 4-(4,5,6,7-tetrabromo-1H-benzo[d]imidazol-2-yl)piperazine-1-carboxylate], the IC50 was 9.4 µM in experiment [1], 7.93 µM in experiment [2], 6.61 µM in experiment [4] and 5.17 µM in experiment [5].

Regarding `CCOC(=O)N1CCN(c2nc3c(Br)c(Br)c(Br)c(Br)c3n2C(=O)OCC)CC1` [Compound 377, ethyl 2-(4-(ethoxycarbonyl)piperazin-1-yl)-4,5,6,7-tetrabromo-1H-benzo[d]imidazole-1-carboxylate], the IC50 in experiment [1] is 9.72 µM; in experiment [2], 9.73 µM; in experiment [4], 5.99 µM; in experiment [5], 5.92 µM.
